Measurements taken from patent US10577349B2 (Sanford Burnham Prebys Medical Discovery Institute, priority 2015, dated 2020).
In brackets after ≈: the same amount, converted by molar mass. Read-outs that look alike come from different tables or passages of the source.

Tests used:
A375 = test: 48 h Cytotoxicity A375; assay type: cell-based; conditions: Homo sapiens, A-375
[1] = biological target: EmCV Cap-independent translation; test: In vitro translation assay, FF-EmCV-Ren construct, cap-independent (Ren luciferase); assay type: biochemical, rabbit reticulocyte lysates
Summary of the method: (§1)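 Rabbit reticulocyte lysate with -Met/-Leu translation mixes pre-incubated with compound 1 h at room temperature, then 0.1 μg bicistronic RNA added and translated 2 h at 30° C. Dual-Glo read-out: FF signal reports cap-dependent, Ren signal IRES-driven translation. Counter assay adds compound after translation to flag luciferase interference.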

PAMPA Permeability = assay type: in vitro ADME
[2] = biological target: HCV cap-dependent translation; test: In vitro translation assay, FF-HCV-Ren construct, cap-dependent (FF luciferase); assay type: biochemical, rabbit reticulocyte lysates
Summary of the method: as §1

[3] = Hepatic Microsome Stability Mouse; assay type: in vitro ADME
[4] = Hepatic Microsome Stability Human; assay type: in vitro ADME
[5] = biological target: HCV cap-independent translation; test: In vitro translation assay, FF-HCV-Ren construct, cap-independent (Ren luciferase); assay type: biochemical, rabbit reticulocyte lysates
Summary of the method: as §1

[6] = Aqueous Solubility in 1xPBS, pH 7.4; assay type: physicochemical; conditions: pH 7.4, aqueous buffer
[7] = Aqueous Solubility in pION's buffer; assay type: physicochemical
[8] = biological target: EmCV Cap-dependent translation; test: In vitro translation assay, FF-EmCV-Ren construct, cap-dependent (FF luciferase); assay type: biochemical, rabbit reticulocyte lysates
Summary of the method: as §1

eIF4F complex = biological target: T1, eIF4F complex (Mus musculus, UniProt Q6NZJ6); test: m7GTP pull-down assay, WT or 4E-BP DKO MEFs; assay type: cell-based; conditions: 6 hours, Torin1 250 nmol/L
T1 construct: endogenous in cells; host or cells: WT and 4E-BP1/2 double-knock-out MEFs
T1 sequence (Q6NZJ6 whole entry, one chain of several): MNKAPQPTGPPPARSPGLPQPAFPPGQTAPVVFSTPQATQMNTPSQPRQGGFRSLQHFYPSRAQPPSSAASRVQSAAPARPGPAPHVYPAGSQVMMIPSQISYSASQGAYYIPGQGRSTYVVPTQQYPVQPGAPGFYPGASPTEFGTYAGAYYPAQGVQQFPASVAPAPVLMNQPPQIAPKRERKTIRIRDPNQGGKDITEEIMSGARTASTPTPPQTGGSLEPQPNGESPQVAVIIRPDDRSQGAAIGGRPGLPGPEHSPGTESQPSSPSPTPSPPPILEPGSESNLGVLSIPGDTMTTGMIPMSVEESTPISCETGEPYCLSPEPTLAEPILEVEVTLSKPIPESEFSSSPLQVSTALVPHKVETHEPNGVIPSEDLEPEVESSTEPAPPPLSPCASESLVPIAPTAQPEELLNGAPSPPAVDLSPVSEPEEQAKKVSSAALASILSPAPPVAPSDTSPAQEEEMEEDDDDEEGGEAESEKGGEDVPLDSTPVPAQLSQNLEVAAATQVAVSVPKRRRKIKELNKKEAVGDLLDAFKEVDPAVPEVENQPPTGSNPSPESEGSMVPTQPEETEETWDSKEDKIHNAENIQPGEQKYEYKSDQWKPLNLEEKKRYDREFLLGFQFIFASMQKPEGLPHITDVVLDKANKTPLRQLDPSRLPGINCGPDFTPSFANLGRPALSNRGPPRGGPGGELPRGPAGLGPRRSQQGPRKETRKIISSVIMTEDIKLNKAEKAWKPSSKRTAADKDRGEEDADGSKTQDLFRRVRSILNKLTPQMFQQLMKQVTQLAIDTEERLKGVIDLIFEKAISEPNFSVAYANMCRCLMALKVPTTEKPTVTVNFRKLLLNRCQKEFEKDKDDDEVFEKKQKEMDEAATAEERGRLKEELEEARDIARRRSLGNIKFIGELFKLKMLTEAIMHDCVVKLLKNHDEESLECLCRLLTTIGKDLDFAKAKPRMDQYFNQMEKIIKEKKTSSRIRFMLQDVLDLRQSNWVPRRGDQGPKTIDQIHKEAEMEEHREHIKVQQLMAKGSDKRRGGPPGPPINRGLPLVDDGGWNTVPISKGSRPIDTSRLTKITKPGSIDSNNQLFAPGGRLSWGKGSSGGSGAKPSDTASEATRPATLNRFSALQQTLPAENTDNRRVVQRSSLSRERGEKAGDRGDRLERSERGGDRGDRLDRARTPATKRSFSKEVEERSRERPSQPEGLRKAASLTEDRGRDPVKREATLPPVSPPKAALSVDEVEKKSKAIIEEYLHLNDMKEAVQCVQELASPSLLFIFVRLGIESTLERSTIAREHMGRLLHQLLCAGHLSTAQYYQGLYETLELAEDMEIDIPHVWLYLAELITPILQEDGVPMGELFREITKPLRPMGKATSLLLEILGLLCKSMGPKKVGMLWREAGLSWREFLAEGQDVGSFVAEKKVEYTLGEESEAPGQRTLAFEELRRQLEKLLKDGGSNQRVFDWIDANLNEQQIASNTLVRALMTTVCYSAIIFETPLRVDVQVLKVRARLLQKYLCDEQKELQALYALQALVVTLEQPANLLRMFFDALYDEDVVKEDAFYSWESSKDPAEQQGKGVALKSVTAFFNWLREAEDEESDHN
Description: As previously described (Dowling R J, et al. mTORC1-mediated cell proliferation, but not cell growth, controlled by the 4E-BPs. Science. 2010; 328:1172-6), cells growing in 100 mm plates were washed (cold PBS), collected, and lysed in 50 mM MOPS/KOH (7.4), 100 mM NaCl, 50 mM NaF, 2 mM EDTA, 2 mM EGTA, 1% NP40, 1% Na-DOC, 7 mM β-mercaptoethanol, protease inhibitors and phosphatase inhibitor cocktail (Roche). Lysates were incubated with m7-GDP-agarose beads (Jena Bioscience) for 20 minutes, washed 4 times with the washing buffer containing 50 mM MOPS/KOH (7.4), 100 mM NaCl, 50 mM NaF, 0.5 mM EDTA, 0.5 mM EGTA, 7 mM (3-mercaptoethanol, 0.5 mM PMSF, 1 mM Na3VO4 and 0.1 mM GTP, and bound proteins were eluted by boiling the beads in loading buffer. m7-GDP-agarose pulled down material was analyzed by Western blot analysis.
Indicated cultures (WT or DKO 4E-BP) were treated with Torin1 (250 nmol/L) or indicated Compound 38 concentrations for 6 hours. Western blots show respective protein levels in total cell lysates or following pull-down using m^7GTP agarose beads. […] P3-Actin served as a loading control and to exclude contamination in m^7GTP pull-down.

A375 tumors = test: A375 xenograft in nude mice; assay type: in vivo
Description: All animal studies were conducted in the SBMRI Animal Facility in accordance with the Institutional Animal Care and Use Committee guidelines. Six-week-old female nu/nu mice were purchased Harlan Laboratories (Indianapolis, Ind.) and allowed to acclimatize for 1 week. A375 cells (1×10^6, suspended in 200 μL sterile PBS) were injected into subcutaneous flank tissue. When the xenograft size reached ˜250 mm^3, mice were sorted into different groups. For PLX4720 and Compound 38 combination experiments, mice were either fed PLX4720-containing chow alone (AIN76A Roden Diet with 417 mg PLX4720/kg from Open Source Diets) for the control group or PLX4 720-containing chow plus an IP injection of 1 mg/kg Compound 38 twice a week. For MEKi plus Compound 38 experiments, PD0325901 at 20 mg/kg (formulated in 0.5% hydroxypropyl methylcellulose plus 0.2% Tween-80) was administered by oral gavage twice a week (Monday and Thursday) for the control group, or PD035901 plus IP injection of 1 mg/kg Compound 38 was administered twice a week (Tuesday and Friday). Mice were maintained in a pathogen-free environment with free access to food. Body weight and tumor volume were measured twice a week. Tumor size was measured with linear calipers and calculated using the formula: ([length in millimeters×(width in millimeters)2]/2). Mice were sacrificed after 4 weeks and tumors were fixed in Z-Fix (Anatech, Battle Creek, Mich.) and embedded in paraffin for immunohistochemistry.
A375 human melanomacells were injected subcutaneously (1×10^6) into the flank of nude mice and allowed to form established tumors. Once tumors reached approximately 250 mm3, mice were randomly grouped and subjected to the indicated treatments [chow containing PLX4720 (417 mg/kg) and/or Compound 38 (1 mg/kg, 2 times per week intraperitoneally)]. Tumor size was measured at the indicated time points. The experiment was repeated twice. […] When tumors were allowed to reach 500 mm^3 before initiating treatment, 5 of 7 […] mice subjected to BRAFi treatment alone relapsed as drug-resistant tumors (4/5 within 4-6 weeks), whereas only 3 of 6 (50%) subjected to combination treatment developed resistance, albeit more slowly (2/3 after 8 weeks; FIG. 22). […] Proteins prepared at the indicated times from A375 tumors that were subjected in vivo to treatment with Compound 38 were incubated with m^7GTP-beads to capture the eIF4F complex. Shown is time-dependent inhibition of eIF4G1 binding to eIF4E in vivo, concomitant with increased binding of inhibitory 4E-BP1 to eIF4E.

[9] = Donor pH 5.0, Acceptor pH 7.4, read-out: PAMPA Permeability, Pe, Donor pH 5.0
[10] = Donor pH 6.2, Acceptor pH 7.4, read-out: PAMPA Permeability, Pe, Donor pH 6.2
[11] = pH 7.4, Donor pH 7.4, Acceptor pH 7.4, read-out: PAMPA Permeability, Pe, Donor pH 7.4
[12] = aqueous buffer, pH 5.0, read-out: Aqueous Solubility in pION's buffer pH 5.0
[13] = pH 6.2, aqueous buffer, read-out: Aqueous Solubility in pION's buffer pH 6.2
[14] = pH 7.4, aqueous buffer, read-out: Aqueous Solubility in pION's buffer pH 7.4

| Compound | IC50 (A375) [µM] | IC50 [1] [µM] | Papp (PAMPA Permeability; [9]) [×10⁻⁶ cm/s] | Papp (PAMPA Permeability; [10]) [×10⁻⁶ cm/s] | Papp (PAMPA Permeability; [11]) [×10⁻⁶ cm/s] | IC50 [2] [µM] | Hepatic Microsome Stability (% remaining at 1 Hr) Mouse [3] [% remaining] | Hepatic Microsome Stability (% remaining at 1 Hr) Mouse (no NADPH) [3] [% remaining] | Hepatic Microsome Stability (% Remaining at 1 hr) Human [4] [% Remaining] | Hepatic Microsome Stability (% Remaining at 1 hr) Human (no NADPH) [4] [% Remaining] | IC50 [5] [µM] | solubility [6] [µg/mL] | solubility [7, 12] [µg/mL] | solubility [7, 13] [µg/mL] | solubility [7, 14] [µg/mL] | IC50 [8] [µM] | eIF4G1:eIF4E association (m7GTP pull-down) (eIF4F complex) | Growth of established tumors (~250 mm^3), BRAFi alone (A375 tumors; chow containing PLX4720 (417 mg/kg)) | Tumors resumed growth, BRAFi-treated group (A375 tumors; treatment started at ~250 mm^3, PLX4720 chow) |
| --- | --- | --- | --- | --- | --- | --- | --- | --- | --- | --- | --- | --- | --- | --- | --- | --- | --- | --- | --- |
| O=C(/C=C/c1ccccc1)c1c(C2CCCCC2)c2cc(Cl)ccc2[nH]c1=O [Compound 12, 6-chloro-3-cinnamoyl-4-cyclohexylquinolin-2(1H)-one] | < 2 | 10 to 20 | 1010 | 301 | 379 | 10 to 20 | 32.98 | 63.69 | 59.85 | 57.73 | > 20 | 1.5 (≈ 3.83 µM) | 1.6 (≈ 4.08 µM) | 1.4 (≈ 3.57 µM) | 1.2 (≈ 3.06 µM) | 2 to 10 |  |  |  |
| O=C(/C=C/c1nc2cc(Cl)ccc2[nH]1)c1c(-c2ccccc2)c2cc(Cl)ccc2[nH]c1=O [Compound 62, 6-Chloro-3-[3-(5-chloro-1H-benzoimidazol-2-yl)-acryloyl]-4-phenyl-1H-quinolin-2-one] | < 2 | 2 to 10 | 29 | 6.2 | 2.5 | 2 to 10 | 85.64 | 82.96 | 89.89 | 54.66 | 2 to 10 | 0.11 (≈ 0.239 µM) | 0.34 (≈ 0.739 µM) | 0.42 (≈ 0.912 µM) | 0.12 (≈ 0.261 µM) | 2 to 10 |  |  |  |
| CCC(=O)N1CCN(c2ccc(-n3c(=O)ccc4cnc5ccc(-c6cnc7ccccc7c6)cc5c43)cc2C(F)(F)F)CC1 [torin1, reference compound] |  |  |  |  |  |  |  |  |  |  |  |  |  |  |  |  | induced dissociation of eIF4G1 from eIF4E in WT but not in 4E-BPDKOMEFs |  |  |
| O=C(/C=C/c1nc2ccccc2[nH]1)c1c(O)nc2ccc(Cl)cc2c1-c1ccccc1 [BI-69A11, reference compound] |  |  | 13 | 16 | 42 |  | 48.54 | 45.01 | 68.24 | 61.74 |  | 0.11 (≈ 0.258 µM) | 0.16 (≈ 0.376 µM) | 0.24 (≈ 0.564 µM) | 0.1 (≈ 0.235 µM) |  |  |  |  |
| CCCS(=O)(=O)Nc1ccc(F)c(C(=O)c2c[nH]c3ncc(Cl)cc23)c1F [PLX4720, reference compound] |  |  |  |  |  |  |  |  |  |  |  |  |  |  |  |  |  | largely inhibited | 3/5 |
| O=C(/C=C/c1ccccn1)c1c(-c2ccc(Cl)cc2)c2cc(Cl)ccc2[nH]c1=O [Compound 82, 3-((2E)-3-(2-pyridyl)prop-2-enoyl)-6-chloro-4-(4-chlorophenyl)hydroquinolin-2-one] | 2 to 10 | 2 to 10 |  |  |  | 2 to 10 |  |  |  |  | 2 to 10 |  |  |  |  | 2 to 10 |  |  |  |
| O=C(/C=C/c1cc(Cl)ccn1)c1c(-c2ccccc2)c2cc(Cl)ccc2[nH]c1=O [Compound 71, 3-[(2E)-3-(4-chloro(2-pyridyl))prop-2-enoyl]-6-chloro-4-phenylhydroquinolin-2-one] | 2 to 10 | > 20 |  |  |  | 10 to 20 |  |  |  |  | > 20 |  |  |  |  | > 20 |  |  |  |
| O=C(/C=C/c1ccc(F)cc1F)c1c(-c2ccccc2)c2cc(Cl)ccc2[nH]c1=O [Compound 41, 6-Chloro-3-[3-(2,4-difluoro-phenyl)-acryloyl]-4-phenyl-1H-quinolin-2-one] | < 2 | 2 to 10 |  |  |  | 2 to 10 |  |  |  |  | 2 to 10 |  |  |  |  | 2 to 10 |  |  |  |
| O=C(/C=C/c1nc2ccccc2[nH]1)c1c(-c2ccccc2)c2cc(C(F)(F)F)ccc2[nH]c1=O [Compound 19, 3-(3-1H-Benzoimidazol-2-yl-acryloyl)-4-phenyl-6-trifluoromethyl-1H-quinolin-2-one] | 2 to 10 | 2 to 10 |  |  |  | 10 to 20 |  |  |  |  | 10 to 20 |  |  |  |  | 2 to 10 |  |  |  |
| O=C(/C=C/c1cc(Br)cs1)c1c(-c2ccccc2)c2cc(Cl)ccc2[nH]c1=O [Compound 46, 3-[3-(4-Bromo-thiophen-2-yl)-acryloyl]-6-chloro-4-phenyl-1H-quinolin-2-one] | 2 to 10 | 2 to 10 |  |  |  | 2 to 10 |  |  |  |  | 2 to 10 |  |  |  |  | 2 to 10 |  |  |  |
| O=C(/C=C/c1nc2ccccc2[nH]1)c1c(-c2ccc(C(F)(F)F)cc2)c2cc(Cl)ccc2[nH]c1=O [Compound 1, 3-(3-1H-Benzoimidazol-2-yl-acryloyl)-6-chloro-4-(4-trifluoromethyl-phenyl)-1H-quinolin-2-one] | 2 to 10 | 2 to 10 |  |  |  | 2 to 10 |  |  |  |  | 2 to 10 |  |  |  |  | 2 to 10 |  |  |  |
